Measured values: PMC10648852, “Molecular drivers of resistance to sulbactam-durlobactam in contemporary clinical isolates of Acinetobacter baumannii” (Antimicrobial Agents and Chemotherapy, 2023)
Like-named read-outs stand apart in the source and are kept apart here.

Experiments:
[1] = test system: A. pittii clinical isolates; assay: microbe, parasite or virus in culture; type: cell-based; conditions: Acinetobacter pittii
Summary of the method: (§1)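 Broth microdilution MICs following CLSI methods, interpreted with CLSI breakpoints where available. Sulbactam tested as twofold dilutions combined with fixed 4 µg/mL durlobactam.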

[2] = test system: A. baumannii clinical isolates; assay: microbe, parasite or virus in culture; type: cell-based; conditions: Acinetobacter baumannii
Summary of the method: as §1

[3] = test system: A. nosocomialis clinical isolate; assay: microbe, parasite or virus in culture; type: cell-based; conditions: Acinetobacter nosocomialis, isolate ARC7023 (IHMA 2118812), France, BSI, 2019, read-out: MIC
Summary of the method: as §1

[4] = test system: A. baumannii PBP3 Q488K; assay: Acylation rate constant (kinact/Ki), fluorescence anisotropy competition with BOCILLIN
[5] = test system: A. baumannii wild-type PBP3; assay: as above; conditions: Wildtype PBP3
[6] = test system: ABC clinical isolates with SUL-DUR MIC > 4 µg/mL; assay: microbe, parasite or virus in culture; type: cell-based, Acinetobacter baumannii-calcoaceticus complex
Summary of the method: as §1

[7] = test system: A. baumannii PBP3 S395F; design: method as in McLeod et al. (2018); conditions: average ± SD, ref McLeod et al. (2018); cited from earlier work
[8] = test system: A. baumannii PBP3 S390T; design: method as in McLeod et al. (2018); conditions: average ± SD, ref McLeod et al. (2018); cited from earlier work
[9] = test system: A. baumannii PBP3 H370Y; assay: Acylation rate constant (kinact/Ki), fluorescence anisotropy competition with BOCILLIN
[10] = test system: A. baumannii PBP3 N377Y; assay: as above

## C[C@@H](O)[C@H]1C(=O)N2C(C(=O)O)=C(S[C@@H]3CN[C@H](C(=O)N(C)C)C3)[C@H](C)[C@H]12 [meropenem]
[1]; isolate ARC6949 (IHMA 1898982), Romania, RTI, 2018, read-out: MIC
  MIC: > 64 µg/mL
[1]; isolate ARC6951 (IHMA 1776233), Philippines, RTI, 2018, read-out: MIC
  MIC: > 64 µg/mL
[1]; isolate ARC6952 (IHMA 1899008), Romania, RTI, 2018, read-out: MIC
  MIC: > 64 µg/mL
[1]; isolate ARC7087 (IHMA 2212062), Colombia, BSI, 2020, read-out: MIC
  MIC: > 64 µg/mL
[2]; isolate ARC6644 (IHMA 1420327), Mexico, UTI, 2016, read-out: MIC
  MIC: 64 µg/mL
[2]; isolate ARC6645 (IHMA 1435703), France, UTI, 2016, read-out: MIC
  MIC: > 64 µg/mL
[2]; isolate ARC6646 (IHMA 1484127), United States, RTI, 2016, read-out: MIC
  MIC: 64 µg/mL
[2]; isolate ARC6647 (IHMA 1386786), Argentina, RTI, 2016, read-out: MIC
  MIC: > 64 µg/mL
[2]; isolate ARC6648 (IHMA 1407634), Spain, RTI, 2016, read-out: MIC
  MIC: > 64 µg/mL
[2]; isolate ARC6650 (IHMA 1457337), Argentina, RTI, 2016, read-out: MIC
  MIC: 64 µg/mL
[2]; isolate ARC6652 (IHMA 1465642), Belgium, RTI, 2016, read-out: MIC
  MIC: > 64 µg/mL
[2]; isolate ARC6653 (IHMA 1308777), Vietnam, RTI, 2016, read-out: MIC
  MIC: > 64 µg/mL
[2]; isolate ARC6799 (IHMA 1562935), Spain, UTI, 2017, read-out: MIC
  MIC: 64 µg/mL
[2]; isolate ARC6800 (IHMA 1557526), Turkey, RTI, 2017, read-out: MIC
  MIC: 64 µg/mL
[2]; isolate ARC6801 (IHMA 1662094), Thailand, RTI, 2017, read-out: MIC
  MIC: > 64 µg/mL
[2]; isolate ARC6802 (IHMA 1557073), Spain, UTI, 2017, read-out: MIC
  MIC: 64 µg/mL
[2]; isolate ARC6803 (IHMA 1589408), Belgium, UTI, 2017, read-out: MIC
  MIC: > 64 µg/mL
[2]; isolate ARC6805 (IHMA 1558650), United States, RTI, 2017, read-out: MIC
  MIC: 64 µg/mL
[2]; isolate ARC6808 (IHMA 1557168), Spain, RTI, 2017, read-out: MIC
  MIC: 64 µg/mL
[2]; isolate ARC6809 (IHMA 1699528), Guatemala, RTI, 2017, read-out: MIC
  MIC: > 64 µg/mL
[2]; isolate ARC6810 (IHMA 1699548), Guatemala, RTI, 2017, read-out: MIC
  MIC: > 64 µg/mL
[2]; isolate ARC6812 (IHMA 1699530), Guatemala, RTI, 2017, read-out: MIC
  MIC: > 64 µg/mL
[2]; isolate ARC6813 (IHMA 1699543), Guatemala, UTI, 2017, read-out: MIC
  MIC: > 64 µg/mL
[2]; isolate ARC6814 (IHMA 1699512), Guatemala, RTI, 2017, read-out: MIC
  MIC: > 64 µg/mL
[2]; isolate ARC6815 (IHMA 1699513), Guatemala, RTI, 2017, read-out: MIC
  MIC: > 64 µg/mL
[2]; isolate ARC6816 (IHMA 1699521), Guatemala, RTI, 2017, read-out: MIC
  MIC: > 64 µg/mL
[2]; isolate ARC6817 (IHMA 1699523), Guatemala, RTI, 2017, read-out: MIC
  MIC: > 64 µg/mL
[2]; isolate ARC6818 (IHMA 1683261), Thailand, RTI, 2017, read-out: MIC
  MIC: > 64 µg/mL
[2]; isolate ARC6819 (IHMA 1683267), Thailand, RTI, 2017, read-out: MIC
  MIC: > 64 µg/mL
[2]; isolate ARC6820 (IHMA 1647876), Argentina, RTI, 2017, read-out: MIC
  MIC: 64 µg/mL
[2]; isolate ARC6821 (IHMA 1699517), Guatemala, RTI, 2017, read-out: MIC
  MIC: > 64 µg/mL
[2]; isolate ARC6822 (IHMA 1637626), Guatemala, RTI, 2017, read-out: MIC
  MIC: > 64 µg/mL
[2]; isolate ARC6823 (IHMA 1620872), Greece, SSSI, 2017, read-out: MIC
  MIC: > 64 µg/mL
[2]; isolate ARC6824 (IHMA 1625487), Argentina, BSI, 2017, read-out: MIC
  MIC: > 64 µg/mL
[2]; isolate ARC6937 (IHMA 1562926), Spain, UTI, 2017, read-out: MIC
  MIC: 64 µg/mL
[2]; isolate ARC6950 (IHMA 1820064), Israel, RTI, 2018, read-out: MIC
  MIC: > 64 µg/mL
[2]; isolate ARC6953 (IHMA 1909827), Turkey, IAI, 2018, read-out: MIC
  MIC: > 64 µg/mL
[2]; isolate ARC6954 (IHMA 1838192), Guatemala, SSSI, 2018, read-out: MIC
  MIC: > 64 µg/mL
[2]; isolate ARC6955 (IHMA 1825425), United States, RTI, 2018, read-out: MIC
  MIC: 64 µg/mL
[2]; isolate ARC7008 (IHMA 2009813), Thailand, BSI, 2019, read-out: MIC
  MIC: > 64 µg/mL
[2]; isolate ARC7009 (IHMA 2043611), United States, UTI, 2019, read-out: MIC
  MIC: > 64 µg/mL
[2]; isolate ARC7010 (IHMA 2043398), United States, RTI, 2019, read-out: MIC
  MIC: > 64 µg/mL
[2]; isolate ARC7011 (IHMA 2104553), Germany, RTI, 2019, read-out: MIC
  MIC: > 64 µg/mL
[2]; isolate ARC7012 (IHMA 2010001), Thailand, RTI, 2019, read-out: MIC
  MIC: > 64 µg/mL
[2]; isolate ARC7013 (IHMA 1962831), Argentina, RTI, 2019, read-out: MIC
  MIC: > 64 µg/mL
[2]; isolate ARC7014 (IHMA 2045328), Guatemala, IAI, 2019, read-out: MIC
  MIC: > 64 µg/mL
[2]; isolate ARC7015 (IHMA 2045327), Guatemala, UTI, 2019, read-out: MIC
  MIC: > 64 µg/mL
[2]; isolate ARC7016 (IHMA 2148441), Brazil, BSI, 2019, read-out: MIC
  MIC: > 64 µg/mL
[2]; isolate ARC7017 (IHMA 2148446), Brazil, BSI, 2019, read-out: MIC
  MIC: > 64 µg/mL
[2]; isolate ARC7018 (IHMA 2045454), Guatemala, IAI, 2019, read-out: MIC
  MIC: > 64 µg/mL
[2]; isolate ARC7019 (IHMA 2114463), Thailand, RTI, 2019, read-out: MIC
  MIC: > 64 µg/mL
[2]; isolate ARC7020 (IHMA 2045326), Guatemala, RTI, 2019, read-out: MIC
  MIC: > 64 µg/mL
[2]; isolate ARC7021 (IHMA 1966347), Guatemala, RTI, 2019, read-out: MIC
  MIC: > 64 µg/mL
[2]; isolate ARC7022 (IHMA 2045319), Guatemala, IAI, 2019, read-out: MIC
  MIC: > 64 µg/mL
[2]; isolate ARC7024 (IHMA 2059448), Turkey, RTI, 2019, read-out: MIC
  MIC: > 64 µg/mL
[2]; isolate ARC7025 (IHMA 2002121), Spain, RTI, 2019, read-out: MIC
  MIC: 64 µg/mL
[2]; isolate ARC7026 (IHMA 2104494), Guatemala, BSI, 2019, read-out: MIC
  MIC: > 64 µg/mL
[2]; isolate ARC7082 (IHMA 2160640), Belgium, BSI, 2020, read-out: MIC
  MIC: > 64 µg/mL
[2]; isolate ARC7083 (IHMA 2163687), United States, RTI, 2020, read-out: MIC
  MIC: 64 µg/mL
[2]; isolate ARC7084 (IHMA 2189596), Germany, RTI, 2020, read-out: MIC
  MIC: > 64 µg/mL
[2]; isolate ARC7085 (IHMA 2205747), Guatemala, IAI, 2020, read-out: MIC
  MIC: > 64 µg/mL
[2]; isolate ARC7086 (IHMA 2207563), Israel, RTI, 2020, read-out: MIC
  MIC: 32 µg/mL
[2]; isolate ARC7088 (IHMA 2215554), Turkey, BSI, 2020, read-out: MIC
  MIC: > 64 µg/mL
[2]; isolate ARC7089 (IHMA 2240345), Argentina, BSI, 2020, read-out: MIC
  MIC: 64 µg/mL
[2]; isolate ARC7090 (IHMA 2244410), Poland, RTI, 2020, read-out: MIC
  MIC: > 64 µg/mL
[2]; isolate ARC7091 (IHMA 2244564), Australia, RTI, 2020, read-out: MIC
  MIC: > 64 µg/mL
[2]; isolate ARC7092 (IHMA 2258772), United States, BSI, 2020, read-out: MIC
  MIC: > 64 µg/mL
[2]; isolate ARC7093 (IHMA 2258783), United States, RTI, 2020, read-out: MIC
  MIC: > 64 µg/mL
[2]; isolate ARC7094 (IHMA 2296423), Turkey, RTI, 2020, read-out: MIC
  MIC: 64 µg/mL
[2]; isolate ARC7095 (IHMA 2320843), Turkey, BSI, 2020, read-out: MIC
  MIC: 32 µg/mL
[2]; isolate ARC7156 (IHMA 2455450), Greece, RTI, 2021, read-out: MIC
  MIC: > 64 µg/mL
[2]; isolate ARC7158 (IHMA 2523738), Italy, BSI, 2021, read-out: MIC
  MIC: > 64 µg/mL
[2]; isolate ARC7159 (IHMA 2456229), Malaysia, RTI, 2021, read-out: MIC
  MIC: > 64 µg/mL
[2]; isolate ARC7160 (IHMA 2458626), Thailand, RTI, 2021, read-out: MIC
  MIC: > 64 µg/mL
[2]; isolate ARC7161 (IHMA 2429252), Ukraine, RTI, 2021, read-out: MIC
  MIC: 64 µg/mL
[2]; isolate ARC7162 (IHMA 2411847), United States, BSI, 2021, read-out: MIC
  MIC: > 64 µg/mL
[2]; isolate ARC7163 (IHMA 2477704), United States, BSI, 2021, read-out: MIC
  MIC: > 64 µg/mL
[3]
  MIC: > 64 µg/mL
[4]
  % WT: 78%
[4]; average ± SD
  k inact/K i: 3,900 ± 200 ([2]) M^-1s^-1
[5]
  % WT: 100%
[5]; average ± SD
  k inact/K i: 5,000 ± 1,000 ([10]) M^-1s^-1
[6]; 64 non-clonal ABC isolates, 2023 CLSI breakpoints plus FDA breakpoint of 4 µg/mL for SUL-DUR
  %NS (% non-susceptibility): 100%
[6]; Acinetobacter
  MIC50: > 64 µg/mL
  MIC90: > 64 µg/mL
[6]; Acinetobacter, read-out: MIC Max
  MIC: > 64 µg/mL
[6]; Acinetobacter, read-out: MIC Min
  MIC: 32 µg/mL
[7]
  k inact/K i: 1,500 ± 200 ([3]) M^-1s^-1
[8]
  k inact/K i: 16,000 ± 6,000 ([3]) M^-1s^-1
[9]
  % WT: 120%
[9]; average ± SD
  k inact/K i: 6,000 ± 10 ([2]) M^-1s^-1
[10]
  % WT: 74%
[10]; average ± SD
  k inact/K i: 3,700 ± 300 ([2]) M^-1s^-1
